System: EoL-1 (human eosinophilic leukaemia cell line) cells
Test: TNF-α-induced cytokine release, EoL-1 cells differentiated with PMA (Luminex)
Assay type: cell-based
Parameters: key to IL-1α (PMA), p of decrement / IL-1β (PMA), p of decrement / IL-1ra (PMA), p of decrement / IL-5 (PMA), p of decrement / IL-7 (PMA), p of decrement / IL-8 (PMA), p of decrement / IP-10 (PMA), p of decrement / MCP-1 (PMA), p of decrement / MIP-1β (PMA), p of decrement / RANTES (PMA), p of decrement / VEGF (PMA), p of decrement / Fractalkine (PMA), p of decrement / MIP-1α (PMA), p of decrement: ns = non significant
Description: EoL-1 (human eosinophilic leukaemia cell line) cells (Saito et al., 1985; Mayumi, 1992) were maintained in RPMI-1640 medium with L-glutamine supplemented with 10% (v/v) FBS at 37° C. in a humidified atmosphere with 5% CO2. Where indicated, 24 h before the experiment 25 ng/mL PMA ((phorbol 12-myristate 13-acetate, purchased from Sigma Aldrich) was added to the medium to induce eosinophil granulation and differentiation (Ohtsu et al., 1993; Zimmermann et al., 2000).
Half-million cells were aliquoted per point in a 24 well plate; each experiment was performed in triplicate and carried out in parallel with eosinophils differentiated and non differentiated with PMA (25 ng/mL, 24 h). Cells were suspended in low serum medium (RPMI-1640, 0.1% (v/v) FBS). TNF-α was used to induce cytokine secretion as previously described by Steube et al. (2000), and the net release was obtained by comparison to the basal (non-TNF-α treated). In the first experiment we evaluated the concentration and time relation between TNF-α stimulation and cytokine release. Therefore, 5, 10, and 25 ng/mL of TNF-α was administered to the cells at 0, ½, 1, 2, 3, 6, 12 and 24 h (data not shown). An aliquot of 150 μL of supernate was collected for cytokines' analysis. […] Differentiated and non-differentiated EoL-1 cells were exposed from 0.1 to 2.3 mM levocabastine ([…]Levocabastine 0.05% solution eye drops containing cyclodextrins, without benzalkonium chloride), and aliquots of the supernates were collected after 12 and 24 h. The content of cytokines at time zero was estimated by treating the cells with 400 nM calcimycin (A-23187), which is a cytolytic agent that frees all the mediators from the cytoplasmic compartment. In addition, for each experiment we tested the effect of the vehicle, which was added to the wells in a concentration equal to the maximum amount used for drug dilution.
Samples (supernates 12 and 24 h) in triplicate were analyzed using Luminex 200™ (Luminex, Austin, Tex.) and Beadview software v1.0 (Upstate Cell Signaling Solutions, Temecula, Calif.).
All data are presented as mean±SEM for the indicated number of experiments. Statistical significance was determined by Newman-Keuls test after ANOVA using GraphPad Prism (version 3.0; GraphPad Software Inc., San Diego, Calif., USA). P-values<0.05 were considered to be significant.

[1] = 24 h, FN + Levocabastine 2 mM vs FN
[2] = 24 h, Levocabastine 2 mM vs TNF-α

C[C@@H]1CN([C@H]2CC[C@](C#N)(c3ccc(F)cc3)CC2)CC[C@]1(C(=O)O)c1ccccc1 [Levocabastine, levocabastine]
P < 0.01: IL-12p40 (PMA), p of decrement [1]
p < 0.01: IP-10 (PMA), p of decrement (12 h, TNF-α vs Lev 0.5 mM) | VEGF (PMA), p of decrement (12 h, TNF-α vs Lev 2.3 mM)
concentration dependent increase of: MIP-1α (PMA), change of secretion (12 h, TNF-α vs Lev 0.1-2.3 mM)
Increase: Fractalkine (PMA), p of decrement [1] | G-CSF (PMA), p of decrement [1] | IL-1ra (PMA), p of decrement [1] | IL-1α (PMA), p of decrement [1] | IL-7 (PMA), p of decrement [1] | IL-8 (PMA), p of decrement [1] | MCP-1 (PMA), p of decrement [1] | MIP-1α (PMA), p of decrement [1] | MIP-1β (PMA), p of decrement [1] | RANTES (PMA), p of decrement [1] | IL-1ra (PMA), p of decrement [2] | IL-1α (PMA), p of decrement [2] | IL-8 (PMA), p of decrement [2]
cytokine secretion p < 0.001: MIP-1α (PMA), p of increase (12 h, TNF-α vs Lev 0.1-2.3 mM)
p < 0.05: IP-10 (PMA), p of decrement (12 h, TNF-α vs Lev 1.0 mM) | VEGF (PMA), p of decrement (12 h, TNF-α vs Lev 1.0 mM)
p < 0.001: IL-1ra (PMA), p of decrement (12 h, TNF-α vs Lev 1.0 mM)
ns: IL-1α (PMA), p of decrement (12 h, TNF-α vs Lev 0.5 mM) | IL-1β (PMA), p of decrement (12 h, TNF-α vs Lev 0.5 mM) | IL-5 (PMA), p of decrement (12 h, TNF-α vs Lev 0.5 mM) | IL-7 (PMA), p of decrement (12 h, TNF-α vs Lev 0.5 mM) | IL-8 (PMA), p of decrement (12 h, TNF-α vs Lev 0.5 mM) | MCP-1 (PMA), p of decrement (12 h, TNF-α vs Lev 0.5 mM) | MIP-1β (PMA), p of decrement (12 h, TNF-α vs Lev 0.5 mM) | RANTES (PMA), p of decrement (12 h, TNF-α vs Lev 0.5 mM) | VEGF (PMA), p of decrement (12 h, TNF-α vs Lev 0.5 mM) | Fractalkine (PMA), p of decrement (12 h, TNF-α vs Lev 1.0 mM) | IL-1α (PMA), p of decrement (12 h, TNF-α vs Lev 1.0 mM) | IL-1β (PMA), p of decrement (12 h, TNF-α vs Lev 1.0 mM) | IL-5 (PMA), p of decrement (12 h, TNF-α vs Lev 1.0 mM) | IL-7 (PMA), p of decrement (12 h, TNF-α vs Lev 1.0 mM) | IL-8 (PMA), p of decrement (12 h, TNF-α vs Lev 1.0 mM) | MCP-1 (PMA), p of decrement (12 h, TNF-α vs Lev 1.0 mM) | MIP-1β (PMA), p of decrement (12 h, TNF-α vs Lev 1.0 mM) | RANTES (PMA), p of decrement (12 h, TNF-α vs Lev 1.0 mM) | Fractalkine (PMA), p of decrement (12 h, TNF-α vs Lev 2.3 mM) | IL-1ra (PMA), p of decrement (12 h, TNF-α vs Lev 2.3 mM) | IL-1α (PMA), p of decrement (12 h, TNF-α vs Lev 2.3 mM) | IL-1β (PMA), p of decrement (12 h, TNF-α vs Lev 2.3 mM) | IL-5 (PMA), p of decrement (12 h, TNF-α vs Lev 2.3 mM) | IL-7 (PMA), p of decrement (12 h, TNF-α vs Lev 2.3 mM) | IL-8 (PMA), p of decrement (12 h, TNF-α vs Lev 2.3 mM) | IP-10 (PMA), p of decrement (12 h, TNF-α vs Lev 2.3 mM) | MCP-1 (PMA), p of decrement (12 h, TNF-α vs Lev 2.3 mM) | MIP-1β (PMA), p of decrement (12 h, TNF-α vs Lev 2.3 mM) | RANTES (PMA), p of decrement (12 h, TNF-α vs Lev 2.3 mM) | GM-CSF (PMA), p of decrement [1] | IL-1β (PMA), p of decrement [1] | IL-5 (PMA), p of decrement [1] | IL-6 (PMA), p of decrement [1] | IL-10 (PMA), p of decrement [1] | IP-10 (PMA), p of decrement [1] | TGF-α (PMA), p of decrement [1] | Fractalkine (PMA), p of decrement [2] | G-CSF (PMA), p of decrement [2] | GM-CSF (PMA), p of decrement [2] | IL-1β (PMA), p of decrement [2] | IL-5 (PMA), p of decrement [2] | IL-6 (PMA), p of decrement [2] | IL-7 (PMA), p of decrement [2] | IL-10 (PMA), p of decrement [2]
P < 0.001: VEGF (PMA), p of decrement [1]

Reference: US20130289070A1, “Use of Levocabastine for Modulating Generation of Pro-Inflammatory Cytokines” (Bausch & Lomb Incorporated, priority 2007, published 2013)
